Source: article PMC8800111 (The Journal of Biological Chemistry, 2021)

What was measured:
Type in all cases: cell-based
[1] = biological target: proteins of U3A human fibrosarcoma cells (4462 proteins detected) (Homo sapiens, UniProt O00231); details: protein PSMD11; U3A cells
[2] = biological target: proteins of U3A human fibrosarcoma cells (4462 proteins detected) (Homo sapiens, UniProt O15498); details: protein YKT6; U3A, 10 μM, 2 h
[3] = biological target: proteins of U3A human fibrosarcoma cells (4462 proteins detected) (Homo sapiens, UniProt O60341); details: protein KDM1A; soluble abundance after heat, U3A cells
[4] = biological target: proteins of U3A human fibrosarcoma cells (4462 proteins detected) (Homo sapiens, UniProt O75674); details: protein TOM1L1; soluble abundance after heat, U3A cells
[5] = biological target: proteins of U3A human fibrosarcoma cells (4462 proteins detected) (Homo sapiens, UniProt P05023); details: protein ATP1A1; U3A, 10 μM, 2 h
[6] = biological target: proteins of U3A human fibrosarcoma cells (4462 proteins detected) (Homo sapiens, UniProt P06733); details: protein ENO1; U3A, 10 μM, 2 h
[7] = biological target: proteins of U3A human fibrosarcoma cells (4462 proteins detected) (Homo sapiens, UniProt P26440); details: protein IVD, U3A cells
[8] = biological target: proteins of U3A human fibrosarcoma cells (4462 proteins detected) (Homo sapiens, UniProt P52943); details: protein CRIP2, U3A cells
[9] = biological target: proteins of U3A human fibrosarcoma cells (4462 proteins detected) (Homo sapiens, UniProt Q12805); details: protein EFEMP1; U3A cells
[10] = biological target: proteins of U3A human fibrosarcoma cells (4462 proteins detected) (Homo sapiens, UniProt Q12874); details: protein SF3A3; U3A cells
[11] = biological target: proteins of U3A human fibrosarcoma cells (4462 proteins detected) (Homo sapiens, UniProt Q13596); details: protein SNX1; U3A cells
[12] = biological target: proteins of U3A human fibrosarcoma cells (4462 proteins detected) (Homo sapiens, UniProt Q14657); details: protein LAGE3; soluble abundance after heat, U3A cells
[13] = biological target: proteins of U3A human fibrosarcoma cells (4462 proteins detected) (Homo sapiens, UniProt Q5PSV4); details: protein BRMS1L, U3A cells
[14] = biological target: proteins of U3A human fibrosarcoma cells (4462 proteins detected) (Homo sapiens, UniProt Q6P2Q9); details: protein PRPF8; soluble abundance after heat, U3A cells
[15] = biological target: proteins of U3A human fibrosarcoma cells (4462 proteins detected) (Homo sapiens, UniProt Q8IW35); details: protein CEP97; U3A, 10 μM, 2 h
[16] = biological target: proteins of U3A human fibrosarcoma cells (4462 proteins detected) (Homo sapiens, UniProt Q8IXQ4); details: protein GPALPP1, U3A cells
[17] = biological target: proteins of U3A human fibrosarcoma cells (4462 proteins detected) (Homo sapiens, UniProt Q8N9N8); details: protein EIF1AD; U3A, 10 μM, 2 h
[18] = biological target: proteins of U3A human fibrosarcoma cells (4462 proteins detected) (Homo sapiens, UniProt Q9C0C9); details: protein UBE2O; soluble abundance after heat, U3A cells
[19] = biological target: proteins of U3A human fibrosarcoma cells (4462 proteins detected) (Homo sapiens, UniProt Q9H3U1); details: protein UNC45A; U3A cells
[20] = biological target: proteins of U3A human fibrosarcoma cells (4462 proteins detected) (Homo sapiens, UniProt Q9H832); details: protein UBE2Z; U3A, 10 μM, 2 h
[21] = biological target: proteins of U3A human fibrosarcoma cells (4462 proteins detected) (Homo sapiens, UniProt Q9H900); details: protein ZWILCH; U3A cells
[22] = biological target: proteins of U3A human fibrosarcoma cells (4462 proteins detected) (Homo sapiens, UniProt Q9H9F9); details: protein ACTR5; U3A cells
[23] = biological target: proteins of U3A human fibrosarcoma cells (4462 proteins detected) (Homo sapiens, UniProt Q9HAS0); details: protein C17orf75; U3A cells
[24] = biological target: proteins of U3A human fibrosarcoma cells (4462 proteins detected) (Homo sapiens, UniProt Q9NS69); details: protein TOMM22; soluble abundance after heat, U3A cells
[25] = biological target: proteins of U3A human fibrosarcoma cells (4462 proteins detected) (Homo sapiens, UniProt Q9UMX5); details: protein NENF, U3A cells
[26] = biological target: proteins of U3A human fibrosarcoma cells (4462 proteins detected) (Homo sapiens, UniProt Q9UNN8); details: protein PROCR; U3A cells
[27] = biological target: proteins of U3A human fibrosarcoma cells (4462 proteins detected) (Homo sapiens, UniProt Q9Y221); details: protein NIP7; soluble abundance after heat, U3A cells
[28] = biological target: proteins of U3A human fibrosarcoma cells (4462 proteins detected) (Homo sapiens, UniProt Q9Y385); details: protein UBE2J1; U3A cells
[29] = biological target: proteins of U3A human fibrosarcoma cells (4462 proteins detected) (Homo sapiens, UniProt Q9Y6M5); details: protein SLC30A1; U3A cells

proteins of U3A human fibrosarcoma cells (4462 proteins detected) (Homo sapiens, UniProt Q9Y221), sequence (Q9Y221 whole entry): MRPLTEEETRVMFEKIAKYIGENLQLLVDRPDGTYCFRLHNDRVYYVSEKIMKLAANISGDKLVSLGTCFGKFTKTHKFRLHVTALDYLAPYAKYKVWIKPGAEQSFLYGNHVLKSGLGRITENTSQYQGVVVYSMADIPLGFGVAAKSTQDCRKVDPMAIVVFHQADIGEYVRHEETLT
proteins of U3A human fibrosarcoma cells (4462 proteins detected) (Homo sapiens, UniProt O75674), sequence (O75674 whole entry): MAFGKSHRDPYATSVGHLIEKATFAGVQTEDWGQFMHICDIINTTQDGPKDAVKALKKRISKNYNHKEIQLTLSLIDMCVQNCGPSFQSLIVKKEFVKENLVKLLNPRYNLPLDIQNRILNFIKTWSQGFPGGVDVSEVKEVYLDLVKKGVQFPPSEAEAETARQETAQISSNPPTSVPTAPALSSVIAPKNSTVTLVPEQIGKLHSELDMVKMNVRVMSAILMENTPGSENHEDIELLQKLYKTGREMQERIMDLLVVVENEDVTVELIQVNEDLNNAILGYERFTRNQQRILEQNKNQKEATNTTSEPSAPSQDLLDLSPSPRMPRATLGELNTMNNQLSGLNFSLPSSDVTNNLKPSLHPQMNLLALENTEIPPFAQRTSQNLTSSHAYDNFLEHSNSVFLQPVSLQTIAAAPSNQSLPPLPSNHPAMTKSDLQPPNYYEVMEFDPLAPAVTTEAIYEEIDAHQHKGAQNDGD
proteins of U3A human fibrosarcoma cells (4462 proteins detected) (Homo sapiens, UniProt Q9Y385), sequence (Q9Y385 whole entry): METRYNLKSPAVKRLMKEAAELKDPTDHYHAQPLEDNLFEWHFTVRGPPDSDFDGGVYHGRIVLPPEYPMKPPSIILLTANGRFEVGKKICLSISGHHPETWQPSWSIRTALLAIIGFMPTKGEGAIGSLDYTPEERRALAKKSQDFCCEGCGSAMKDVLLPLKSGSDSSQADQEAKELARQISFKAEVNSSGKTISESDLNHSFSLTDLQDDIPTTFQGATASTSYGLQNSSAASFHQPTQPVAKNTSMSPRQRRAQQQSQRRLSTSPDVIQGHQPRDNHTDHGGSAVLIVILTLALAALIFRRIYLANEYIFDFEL
proteins of U3A human fibrosarcoma cells (4462 proteins detected) (Homo sapiens, UniProt P06733), sequence (P06733 whole entry): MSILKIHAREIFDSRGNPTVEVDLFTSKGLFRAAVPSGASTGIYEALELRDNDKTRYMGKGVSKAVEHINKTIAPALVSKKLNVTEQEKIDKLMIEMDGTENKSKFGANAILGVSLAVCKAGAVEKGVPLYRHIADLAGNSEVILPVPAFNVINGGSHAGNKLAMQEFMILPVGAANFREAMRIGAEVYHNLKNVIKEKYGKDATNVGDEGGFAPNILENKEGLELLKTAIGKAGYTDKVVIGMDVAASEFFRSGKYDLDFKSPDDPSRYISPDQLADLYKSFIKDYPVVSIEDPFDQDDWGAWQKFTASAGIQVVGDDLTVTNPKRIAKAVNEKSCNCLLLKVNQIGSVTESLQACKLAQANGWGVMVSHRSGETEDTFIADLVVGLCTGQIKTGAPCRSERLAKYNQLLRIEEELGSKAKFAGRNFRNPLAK
proteins of U3A human fibrosarcoma cells (4462 proteins detected) (Homo sapiens, UniProt Q12874), sequence (Q12874 whole entry): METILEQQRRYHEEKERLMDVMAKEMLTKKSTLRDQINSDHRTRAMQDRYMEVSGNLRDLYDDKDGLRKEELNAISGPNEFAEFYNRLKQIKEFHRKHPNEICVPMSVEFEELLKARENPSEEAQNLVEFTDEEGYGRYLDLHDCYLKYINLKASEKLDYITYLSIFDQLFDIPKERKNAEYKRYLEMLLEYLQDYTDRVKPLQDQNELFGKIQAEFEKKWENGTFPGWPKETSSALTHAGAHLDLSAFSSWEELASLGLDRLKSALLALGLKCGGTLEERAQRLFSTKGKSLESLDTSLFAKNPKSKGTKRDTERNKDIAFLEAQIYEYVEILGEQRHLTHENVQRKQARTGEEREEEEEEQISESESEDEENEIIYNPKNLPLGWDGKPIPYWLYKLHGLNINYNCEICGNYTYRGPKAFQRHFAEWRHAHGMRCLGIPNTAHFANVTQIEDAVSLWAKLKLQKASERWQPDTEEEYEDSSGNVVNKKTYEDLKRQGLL
proteins of U3A human fibrosarcoma cells (4462 proteins detected) (Homo sapiens, UniProt Q9NS69), sequence (Q9NS69 whole entry): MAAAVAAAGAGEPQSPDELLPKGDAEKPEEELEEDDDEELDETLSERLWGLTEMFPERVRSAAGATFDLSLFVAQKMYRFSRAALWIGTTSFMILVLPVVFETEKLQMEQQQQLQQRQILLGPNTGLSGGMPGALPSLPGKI
proteins of U3A human fibrosarcoma cells (4462 proteins detected) (Homo sapiens, UniProt Q9H3U1), sequence (Q9H3U1 whole entry): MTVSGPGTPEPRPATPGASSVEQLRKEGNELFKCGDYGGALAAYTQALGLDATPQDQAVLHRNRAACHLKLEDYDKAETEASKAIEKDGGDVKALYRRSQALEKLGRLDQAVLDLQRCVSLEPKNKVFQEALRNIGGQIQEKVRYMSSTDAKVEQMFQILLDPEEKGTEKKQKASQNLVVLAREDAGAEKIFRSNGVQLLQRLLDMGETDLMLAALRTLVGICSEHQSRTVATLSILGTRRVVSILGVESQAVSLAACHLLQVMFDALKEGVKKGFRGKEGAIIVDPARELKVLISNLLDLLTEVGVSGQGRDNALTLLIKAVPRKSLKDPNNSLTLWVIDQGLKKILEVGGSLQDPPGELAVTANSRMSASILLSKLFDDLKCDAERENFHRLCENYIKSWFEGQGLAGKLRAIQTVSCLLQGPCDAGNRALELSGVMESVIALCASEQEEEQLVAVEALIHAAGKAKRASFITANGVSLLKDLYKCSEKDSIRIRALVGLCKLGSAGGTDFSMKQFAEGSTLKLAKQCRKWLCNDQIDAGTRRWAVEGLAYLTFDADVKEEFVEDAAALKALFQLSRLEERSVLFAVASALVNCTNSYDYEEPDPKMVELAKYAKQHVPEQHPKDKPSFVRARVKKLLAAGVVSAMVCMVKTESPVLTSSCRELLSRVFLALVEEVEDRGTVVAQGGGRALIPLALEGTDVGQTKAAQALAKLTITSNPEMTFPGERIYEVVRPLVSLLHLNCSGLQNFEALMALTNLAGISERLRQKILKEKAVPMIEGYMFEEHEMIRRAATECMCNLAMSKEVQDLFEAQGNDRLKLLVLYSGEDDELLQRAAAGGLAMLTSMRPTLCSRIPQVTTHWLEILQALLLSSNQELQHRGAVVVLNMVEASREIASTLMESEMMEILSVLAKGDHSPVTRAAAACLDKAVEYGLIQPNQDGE
proteins of U3A human fibrosarcoma cells (4462 proteins detected) (Homo sapiens, UniProt O00231), sequence (O00231 whole entry): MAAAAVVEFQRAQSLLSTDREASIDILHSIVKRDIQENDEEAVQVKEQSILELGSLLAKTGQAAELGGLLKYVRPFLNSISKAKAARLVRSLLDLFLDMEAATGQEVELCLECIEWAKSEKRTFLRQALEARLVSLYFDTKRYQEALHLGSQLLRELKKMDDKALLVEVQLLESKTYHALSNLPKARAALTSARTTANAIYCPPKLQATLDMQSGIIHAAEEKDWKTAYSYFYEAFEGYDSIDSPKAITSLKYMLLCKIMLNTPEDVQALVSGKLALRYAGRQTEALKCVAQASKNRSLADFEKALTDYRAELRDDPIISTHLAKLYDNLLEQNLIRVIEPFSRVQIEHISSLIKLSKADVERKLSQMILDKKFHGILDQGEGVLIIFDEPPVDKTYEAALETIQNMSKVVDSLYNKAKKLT
proteins of U3A human fibrosarcoma cells (4462 proteins detected) (Homo sapiens, UniProt Q8IXQ4), sequence (Q8IXQ4 whole entry): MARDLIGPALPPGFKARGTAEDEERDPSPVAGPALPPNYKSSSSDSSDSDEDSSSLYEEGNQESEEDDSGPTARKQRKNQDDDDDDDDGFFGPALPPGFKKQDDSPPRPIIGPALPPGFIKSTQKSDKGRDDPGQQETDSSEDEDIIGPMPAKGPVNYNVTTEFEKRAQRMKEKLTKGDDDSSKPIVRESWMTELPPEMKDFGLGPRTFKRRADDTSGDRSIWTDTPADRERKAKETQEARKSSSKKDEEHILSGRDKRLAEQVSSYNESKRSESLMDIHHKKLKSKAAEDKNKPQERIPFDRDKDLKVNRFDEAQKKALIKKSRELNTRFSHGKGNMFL
proteins of U3A human fibrosarcoma cells (4462 proteins detected) (Homo sapiens, UniProt Q9HAS0), sequence (Q9HAS0 whole entry): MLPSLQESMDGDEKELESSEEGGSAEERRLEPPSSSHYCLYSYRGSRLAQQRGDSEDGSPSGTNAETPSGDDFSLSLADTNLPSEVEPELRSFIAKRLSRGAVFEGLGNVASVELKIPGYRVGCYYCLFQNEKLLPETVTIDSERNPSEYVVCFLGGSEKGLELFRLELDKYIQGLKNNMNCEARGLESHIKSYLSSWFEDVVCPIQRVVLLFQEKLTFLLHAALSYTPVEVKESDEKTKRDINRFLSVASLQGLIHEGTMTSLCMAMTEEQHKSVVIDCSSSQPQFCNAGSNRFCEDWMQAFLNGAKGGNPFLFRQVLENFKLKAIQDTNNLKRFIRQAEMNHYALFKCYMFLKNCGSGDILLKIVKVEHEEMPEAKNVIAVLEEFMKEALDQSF
proteins of U3A human fibrosarcoma cells (4462 proteins detected) (Homo sapiens, UniProt Q9UMX5), sequence (Q9UMX5 32-172): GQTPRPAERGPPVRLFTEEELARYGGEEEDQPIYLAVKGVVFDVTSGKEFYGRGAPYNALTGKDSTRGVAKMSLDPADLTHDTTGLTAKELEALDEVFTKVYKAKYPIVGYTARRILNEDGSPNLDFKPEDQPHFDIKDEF
proteins of U3A human fibrosarcoma cells (4462 proteins detected) (Homo sapiens, UniProt O15498), sequence (O15498 whole entry): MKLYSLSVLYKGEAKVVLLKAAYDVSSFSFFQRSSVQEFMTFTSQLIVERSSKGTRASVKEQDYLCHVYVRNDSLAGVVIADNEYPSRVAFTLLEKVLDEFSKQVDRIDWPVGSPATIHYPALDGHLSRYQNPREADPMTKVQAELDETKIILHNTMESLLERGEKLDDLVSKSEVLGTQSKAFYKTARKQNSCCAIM
proteins of U3A human fibrosarcoma cells (4462 proteins detected) (Homo sapiens, UniProt P26440), sequence (P26440 33-426): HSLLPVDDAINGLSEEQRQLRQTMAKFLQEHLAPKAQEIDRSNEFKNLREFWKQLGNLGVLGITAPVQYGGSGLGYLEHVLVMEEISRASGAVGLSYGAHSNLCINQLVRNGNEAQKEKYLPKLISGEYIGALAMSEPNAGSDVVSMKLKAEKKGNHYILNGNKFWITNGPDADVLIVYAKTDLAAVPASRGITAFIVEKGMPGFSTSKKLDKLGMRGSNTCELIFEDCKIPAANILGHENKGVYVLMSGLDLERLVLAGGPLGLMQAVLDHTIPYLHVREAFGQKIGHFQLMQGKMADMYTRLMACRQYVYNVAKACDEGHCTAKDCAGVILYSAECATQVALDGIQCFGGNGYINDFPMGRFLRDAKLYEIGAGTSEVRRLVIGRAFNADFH

Structure (SMILES): CCc1nc(N)nc(N)c1-c1ccc(Cl)cc1 [pyrimethamine]
- Log2 (PYR/DMSO) [1]: 0.17
- Log2 (PYR/DMSO), YKT6 [2]: 0.27
- Log2 (PYR/DMSO) [3]: 0.14
- Log2 (PYR/DMSO) [4]: 0.15
- Log2 (PYR/DMSO), ATP1A1 [5]: 0.37
- Log2 (PYR/DMSO), ENO1 [6]: -0.17
- Log2 (PYR/DMSO) [7]: -0.05
- Log2 (PYR/DMSO) [8]: -0.04
- Log2 (PYR/DMSO) [9]: 0.18
- Log2 (PYR/DMSO) [10]: 0.18
- Log2 (PYR/DMSO) [11]: 0.17
- Log2 (PYR/DMSO) [12]: 0.14
- Log2 (PYR/DMSO) [13]: -0.04
- Log2 (PYR/DMSO) [14]: 0.14
- Log2 (PYR/DMSO), CEP97 [15]: -0.20
- Log2 (PYR/DMSO) [16]: -0.04
- Log2 (PYR/DMSO), EIF1AD [17]: -0.14
- Log2 (PYR/DMSO) [18]: 0.14
- Log2 (PYR/DMSO) [19]: 0.21
- Log2 (PYR/DMSO), UBE2Z [20]: 0.25
- Log2 (PYR/DMSO) [21]: 0.22
- Log2 (PYR/DMSO) [22]: 0.20
- Log2 (PYR/DMSO) [23]: 0.18
- Log2 (PYR/DMSO) [24]: 0.14
- Log2 (PYR/DMSO) [25]: -0.04
- Log2 (PYR/DMSO) [26]: 0.18
- Log2 (PYR/DMSO) [27]: 0.14
- Log2 (PYR/DMSO) [28]: 0.22
- Log2 (PYR/DMSO) [29]: 0.16
